Test results published in EP0982399B1, “Thyroid hormone transporters, agonists and antagonists thereof” (Stichting tot bevordering van de wetenschap der …, priority 1998, dated 2000).
Counter-ions that a name gives are not always drawn.

Assays:
in vitro = conditions: for uptake ratio at 1 h: oatp1, choline
Method: (§1) For capping, the m7G[5']ppp[5']G cap analog was used (Epicentre Technologies). cRNA was stored in water at -80 C at a concentration of 0.1 mg/ml.
(§2) Oocytes were prepared as described previously (9). After isolation, the oocytes were sorted on morphological criteria and defolliculated manually. […] The next day, oocytes were injected with 23 nl water containing 23 ng mRNA, 2.3 ng Ntcp cRNA or 2.3 ng oatp1 cRNA using the Nanoject system (Drummond Scientific, Broomall, PA). Injected and uninjected oocytes were maintained for 2-3 days at 18 C in modified Barth's solution.
(§3) Uptake assays were performed as described previously (9). […] After 1 h, incubation buffer was removed and the oocytes were washed four times with 2.5 ml ice-cold Na^+-containing incubation buffer supplemented with 0.1% BSA. Oocytes were transferred to new tubes and counted individually.

[1] = test system: Na^+-independent organic anion transporting polypeptide (oatp1); test: Uptake of [125I]iodothyronine derivatives by Xenopus laevis oocytes injected with oatp1 cRNA; conditions: oatp1 cRNA-injected oocytes; 1-2 nM ligand; Na^+ medium
Method: as §1, §2, §3

Compound | uptake ratio at 1 h, 100 µM (in vitro; xenopus oocytes, ntcp crna) | uptake ratio at 1 h (in vitro; xenopus oocytes) | uptake ratio at 1 h, 100 µM (in vitro; xenopus oocytes, oatp1 crna) | uptake ratio at 1 h, 100 µM (in vitro) | uptake higher than that of the other sulfates [1]
N[C@@H](Cc1cc(I)c(Oc2cc(I)c(O)c(I)c2)c(I)c1)C(=O)O [T4, 3,3',5,5'-tetraiodothyronine] | 1.9 | 3.8 | 2.8 | – | –
N[C@@H](Cc1ccc(Oc2cc(I)c(O)c(I)c2)c(I)c1)C(=O)O [rT3, 3,3',5'-triiodothyronine] | – | 8.5 | 6 | 1.8 | –
N[C@@H](Cc1ccc(Oc2ccc(O)c(I)c2)c(I)c1)C(=O)O [3,3'-T2, 3,3'-diiodothyronine] | – | 1.8 | 1.4 | 1.3 | –
NC(Cc1cc(I)c(Oc2ccc(OS(=O)(=O)O)c(I)c2)c(I)c1)C(=O)O (stereo not shown) [T3S, T3 sulfate] | – | – | – | – | ~50%
